Laboratory results: US7541020B2, “Aminoalkyl glucosaminide phosphate compounds and their use as adjuvants and immunoeffectors” (priority 1997, dated 2009)
Read-outs that look alike come from different tables or passages of the source.

How the values were obtained:
TNF-α = experiment: Cytokine induction in human whole blood ex vivo culture: TNF-α (ELISA); type: cell-based; conditions: 4 hr
Description: (§1) AGP compounds were solubilized in 10% EtOH-water and diluted to various concentrations. Fifty μl of each dilution were added to 450 μl of whole human blood. Controls were treated with culture media (RPMI). The reaction mixture was incubated at 37° C. for 4 hr with constant mixing on a rotator. Sterile PBS (1.5 ml) was added to the reaction mixture, the cells were centrifuged and the supernatents removed for cytokine testing. The concentration of TNF-α and IL-1β in each supernatent was determined using immunoassay ELISA kits from R&D Systems.

E.G7 (OVA) cells = conditions: s.c. 25 μg OVA in AGP preparation, spleen cells 21 days later
[1] = Fever response in rabbits (pyrogenicity); type: in vivo; conditions: for PYROGENICITY Total Rise ° C., 3 rabbits: 10 ug/kg, cumulative rise ≥1.5 degree in three rabbits is considered pyrogenic; for PY[…]: rabbits
Description: The AGP compounds were also evaluated for their tendency to induce a fever response in rabbits. Each compound was formulated in 10% (v/v) ethanol/water solution at 100 mg/ml, then diluted with D5W to the desired concentration. The material was injected at 3 ml/kg body weight into 3 rabbits. The rise in core temperature of the rabbits was recorded.

tetanus toxoid = conditions: mouse, in vivo, sc
IL-1β = experiment: Cytokine induction in human whole blood ex vivo culture: IL-1β (ELISA); type: cell-based; conditions: 4 hr
Description: as §1

influenza A/HK/68 [2] = tested on: influenza A/HK/68; set-up: species or system ICR mice; conditions: mouse, in vivo
influenza A/HK/68 [3] = type: in vivo, BALB/c mice
ovalbumin = experiment: Stimulation of antiovalbumin antibody production; type: in vivo, BDF1 female mice; conditions: 50 μg AGP + 50 μg ovalbumin; second immunization day 21; bled 14 days after second injection
Description: BDF1 female mice (8 per group) were immunized with 0.2 ml of emulsions containing 50 μg of the AGPs +50 μg of ovalbumin. A second immunization was administered 21 days post primary. Each mouse was bled 14 days after the second injection.

influenza A/HK/68 [4] = type: in vivo, ICR mice; conditions: mouse, in vivo
[5] = 25 μg AGP + 1 HAU FI-Flu in 2% Squalene, SQ once, bled 14 days after vaccination

Compound: CCCCCCCCCCCCCC(=O)O[C@H](CCCCCCCCCCC)CC(=O)N[C@H]1[C@H](OC[C@H](NC(=O)C[C@@H](CCCCCCCCCCC)OC(=O)CCCCCCCCCCCCC)C(=O)OC)O[C@H](CO)[C@@H](OP(=O)(O)O)[C@@H]1OC(=O)C[C@@H](CCCCCCCCCCC)OC(=O)CCCCCCCCCCCCC.CCN(CC)CC [B26, N-[(R)-3-Tetradecanoyloxytetradecanoyl]-O-[2-deoxy-4-O-phosphono-2-[(R)-3-tetradecanoyloxytetradecanoylamino]-3-O-[(R)-3-tetradecanoyloxytetradecanoyl]-β-D-glucopyranosyl]-1-serine Methyl Ester Triethylammoniun Salt]
- TNF-α (TNF-α; Dosage 1 μg, 37° C., Table 14): 38.85 pg/mL
- TNF-α (TNF-α; Dosage 5 μg, 37° C., Table 14): 75.62 pg/mL
- TNF-α (TNF-α; Dosage 10 μg, 37° C., Table 14): 254.94 pg/mL
- TNF-α (TNF-α; Dosage 20 μg, 37° C., Table 14): 498.90 pg/mL
- % Cytotoxicity (E.G7 (OVA) cells; E:T 12.5:1): 4%
- % Cytotoxicity (E.G7 (OVA) cells; E:T 25:1): 8%
- % Cytotoxicity (E.G7 (OVA) cells; E:T 50:1): 14%
- PYROGENICITY Total Rise ° C., 3 rabbits [1]: 1.7 °C
- PY[…] [1]: 5 µg/kg
- Anti-tetanus toxoid IgG1 T/C (tetanus toxoid): 16.9
- Anti-tetanus toxoid IgG1 Titer (tetanus toxoid): 25,200
- Anti-tetanus toxoid IgG2a T/C (tetanus toxoid): 29.3
- Anti-tetanus toxoid IgG2a Titer (tetanus toxoid): 440
- Anti-tetanus toxoid IgG2b T/C (tetanus toxoid): 42.6
- Anti-tetanus toxoid IgG2b Titer (tetanus toxoid): 2,260
- Anti-tetanus toxoid IgM T/C (tetanus toxoid): 1.1
- Anti-tetanus toxoid IgM Titer (tetanus toxoid): 600
- Anti-tetanus toxoid Total Ig T/C (tetanus toxoid): 10.5
- Anti-tetanus toxoid Total Ig Titer (tetanus toxoid): 2,490
- IL-1β (IL-1β; Dosage 1 μg, 37° C., Table 14): 3.90 pg/mL
- IL-1β (IL-1β; Dosage 5 μg, 37° C., Table 14): 9.89 pg/mL
- IL-1β (IL-1β; Dosage 10 μg, 37° C., Table 14): 25.34 pg/mL
- IL-1β (IL-1β; Dosage 20 μg, 37° C., Table 14): 33.25 pg/mL

Compound: 3-Hydroxy-(S)-2-[(R)-3-decanoyloxytetradecanoylamino]propyl 2-Deoxy-6-O-phosphono-2-[(R)-3-decanoyloxytetradecanoylamino]-3-O-[(R)-3-decanoyloxytetradecanoyl]-β-D-glucopyranoside Triethylammonium Salt [B6]
- % Cytotoxicity (E.G7 (OVA) cells; E:T 12.5:1): 37%
- % Cytotoxicity (E.G7 (OVA) cells; E:T 25:1): 41%
- % Cytotoxicity (E.G7 (OVA) cells; E:T 50:1): 54%
- IgG Titer-1 post 1° (influenza A/HK/68 [2]): 1600
- IgG Titer-1 post 2° (influenza A/HK/68 [2]): 102,400
- Percent Survival post 1° (influenza A/HK/68 [2]): 80%
- Percent Survival post 2° (influenza A/HK/68 [2]): 70%
- Anti-influenza Titer^−1 IgG1 (influenza A/HK/68 [3]; mouse, in vivo): 800
- Anti-influenza Titer^−1 IgG2a (influenza A/HK/68 [3]; mouse, in vivo): 400
- Anti-influenza Titer^−1 IgG2b (influenza A/HK/68 [3]; mouse, in vivo): 1600
- Anti-influenza Titer^−1 Total IgG (influenza A/HK/68 [3]; mouse, in vivo): 800
- Percent Survival (influenza A/HK/68 [3]; mouse, in vivo): 75%

Compound: CCCCCCCCCCCCCC(=O)OC(CCCCCCCCCCC)CC(=O)NC(COC1OC(CO)C(OP(=O)(O)O)C(OC(=O)CC(CCCCCCCCCCC)OC(=O)CCCCCCCCCCCCC)C1NC(=O)CC(CCCCCCCCCCC)OC(=O)CCCCCCCCCCCCC)C(N)=O.CCN(CC)CC [B24, N-[(R)-3-Tetradecanoyloxytetradecanoyl]-O-phosphono-2-[(R)-3-tetradecanoyloxytetradecanoylamino]-3-O-[(R)-3-tetradecanoyloxytetradecanoyl]β-D-glucopyranosyl]-L-serinamide Triethylammonium Salt]
- PYROGENICITY Total Rise ° C., 3 rabbits [1]: 2.4 °C
- PY[…] [1]: 2.5 to 5 µg/kg

Compound: N-[(R)-3-Hexanoyloxytetradecanoyl]-O-[2-deoxy-4-O-phosphono-2-[(R)-3-hexanoyloxytetradecanoylamino]-3-O-[(R)-3-hexanoyloxytetradecanoyl]-α-d-glucopyranosyl]-l-serinamide Triethylammonium Salt [B29]
- % Cytotoxicity (E.G7 (OVA) cells; E:T 12.5:1): 5%
- % Cytotoxicity (E.G7 (OVA) cells; E:T 25:1): 9%
- % Cytotoxicity (E.G7 (OVA) cells; E:T 50:1): 16%
- PYROGENICITY Total Rise ° C., 3 rabbits [1]: 0.7 °C

Compound: 3-Hydroxy-(R)-2-[(R)-3-tetradecanoyloxytetradecanoylamino]propyl 2-Deoxy-4-O-phosphono-2-[(R)-3-tetradecanoyloxytetradecanoylamino]-3-O-[(R)-3-tetradecanoyloxytetradecanoyl]-β-D-glucopyranoside Triethylammonium Salt [B2]
- % Cytotoxicity (E.G7 (OVA) cells; E:T 12.5:1): 6%
- % Cytotoxicity (E.G7 (OVA) cells; E:T 25:1): 12%
- % Cytotoxicity (E.G7 (OVA) cells; E:T 50:1): 21%
- PYROGENICITY Total Rise ° C., 3 rabbits [1]: 3.6 °C
- PY[…] [1]: 2.5 to 5 µg/kg
- Anti-ovalbumin IgG1 T/C (ovalbumin): 5.0
- Anti-ovalbumin IgG1 Titer (ovalbumin): 8300
- Anti-ovalbumin IgG2a T/C (ovalbumin): 2.5
- Anti-ovalbumin IgG2a Titer (ovalbumin): 825
- Anti-ovalbumin IgG2b T/C (ovalbumin): 2.3
- Anti-ovalbumin IgG2b Titer (ovalbumin): 550
- Anti-ovalbumin IgM T/C (ovalbumin): 0.9
- Anti-ovalbumin IgM Titer (ovalbumin): 175
- Anti-ovalbumin Total Ig T/C (ovalbumin): 2.5
- Anti-ovalbumin Total Ig Titer (ovalbumin): 563

Compound: 3-Hydroxy-(S)-2-[(R)-3-tetradecanoyloxytetradecanoylamino]propyl 2-Deoxy-4-O-phosphono-2-[(R)-3-tetradecanoyloxytetradecanoylamino]-3-O-[(R)-3-tetradecanoyloxytetradecanoyl]-β-D-glucopyranoside Triethylammonium Salt [B1]
- % Cytotoxicity (E.G7 (OVA) cells; E:T 12.5:1): 15%
- % Cytotoxicity (E.G7 (OVA) cells; E:T 25:1): 24%
- % Cytotoxicity (E.G7 (OVA) cells; E:T 50:1): 34%
- Percent Survival (influenza A/HK/68 [4]): 40%
- Titer−1 IgG1 (influenza A/HK/68 [4]): 6400
- Titer−1 IgG2a (influenza A/HK/68 [4]): 1600
- Titer−1 IgG2b (influenza A/HK/68 [4]): 15600
- Titer−1 Total IgG (influenza A/HK/68 [4]): 12,800
- PYROGENICITY Total Rise ° C., 3 rabbits [1]: 0.1 °C
- Anti-ovalbumin IgG1 T/C (ovalbumin): 0.5
- Anti-ovalbumin IgG1 Titer (ovalbumin): 763
- Anti-ovalbumin IgG2a T/C (ovalbumin): 0.2
- Anti-ovalbumin IgG2a Titer (ovalbumin): 56
- Anti-ovalbumin IgG2b T/C (ovalbumin): 0.8
- Anti-ovalbumin IgG2b Titer (ovalbumin): 188
- Anti-ovalbumin IgM T/C (ovalbumin): 0.8
- Anti-ovalbumin IgM Titer (ovalbumin): 150
- Anti-ovalbumin Total Ig T/C (ovalbumin): 0.5
- Anti-ovalbumin Total Ig Titer (ovalbumin): 119

Compound: N-[(R)-3-Octanoyloxytetradecanoyl]-O-[2-deoxy-4-O-phosphono-2-[(R)-3-octanoyloxytetradecanoylamino]-3-O-[(R)-3-octanoyloxytetradecanoyl]-β-D-glucopyranosyl]-L-serine Triethylammonium Salt [B17]
- TNF-α (TNF-α; Dosage 1000 ng/ml, Table 19): 2.6 pg/mL
- TNF-α (TNF-α; Dosage 5000 ng/ml, Table 19): 2.2 pg/mL
- TNF-α (TNF-α; Dosage 10,000 ng/ml, Table 19): 2.8 pg/mL
- % Cytotoxicity (E.G7 (OVA) cells; E:T 12.5:1): 15%
- % Cytotoxicity (E.G7 (OVA) cells; E:T 25:1): 26%
- % Cytotoxicity (E.G7 (OVA) cells; E:T 50:1): 39%
- Percent Survival (influenza A/HK/68 [4]): 40%
- Titer^−1 IgG1 (influenza A/HK/68 [4]): 3200
- Titer^−1 IgG2a (influenza A/HK/68 [4]): 3200
- Titer^−1 IgG2b (influenza A/HK/68 [4]): 1600
- Titer^−1 Total IgG (influenza A/HK/68 [4]): 6400
- PYROGENICITY Total Rise ° C., 3 rabbits [1]: 3.4 °C
- IL-1β (IL-1β; Dosage 1000 ng/ml, Table 19): 0.2 pg/mL
- IL-1β (IL-1β; Dosage 5000 ng/ml, Table 19): 0 pg/mL
- IL-1β (IL-1β; Dosage 10,000 ng/ml, Table 19): 0 pg/mL

Compound: CCCCCCCCCCC[C@H](CC(=O)N[C@H]1[C@H](OCCCN(CC(=O)O)C(=O)C[C@@H](CCCCCCCCCCC)OC(=O)CCCCCCCCC)O[C@H](CO)[C@@H](OP(=O)(O)O)[C@@H]1OC(=O)C[C@@H](CCCCCCCCCCC)OC(=O)CCCCCCCCC)OC(=O)CCCCCCCCC.CCN(CC)CC [B28]
- TNF-α (TNF-α; Dosage 1000 ng/ml, Table 19): 139 pg/mL
- TNF-α (TNF-α; Dosage 5000 ng/ml, Table 19): 197 pg/mL
- TNF-α (TNF-α; Dosage 10,000 ng/ml, Table 19): 198 pg/mL
- % Cytotoxicity (E.G7 (OVA) cells; E:T 12.5:1): 9%
- % Cytotoxicity (E.G7 (OVA) cells; E:T 25:1): 15%
- % Cytotoxicity (E.G7 (OVA) cells; E:T 50:1): 28%
- Anti-tetanus toxoid IgG1 T/C (tetanus toxoid): 92.5
- Anti-tetanus toxoid IgG1 Titer (tetanus toxoid): 137,600
- Anti-tetanus toxoid IgG2a T/C (tetanus toxoid): 664.7
- Anti-tetanus toxoid IgG2a Titer (tetanus toxoid): 9,970
- Anti-tetanus toxoid IgG2b T/C (tetanus toxoid): 519.2
- Anti-tetanus toxoid IgG2b Titer (tetanus toxoid): 27,520
- Anti-tetanus toxoid IgM T/C (tetanus toxoid): 3.7
- Anti-tetanus toxoid IgM Titer (tetanus toxoid): 2,080
- Anti-tetanus toxoid Total Ig T/C (tetanus toxoid): 228.6
- Anti-tetanus toxoid Total Ig Titer (tetanus toxoid): 54,500
- Percent Survival (influenza A/HK/68 [3]; 25 μg AGP + 1 HAU FI-Flu in 2% Squalene, SQ once, […], mortality 21 days): 50%
- Anti-influenza Titer^−1 IgG1 (influenza A/HK/68 [3]; [5]): 400
- Anti-influenza Titer^−1 IgG2a (influenza A/HK/68 [3]; [5]): 400
- Anti-influenza Titer^−1 IgG2b (influenza A/HK/68 [3]; [5]): 100
- Anti-influenza Titer^−1 Total IgG (influenza A/HK/68 [3]; [5]): 800
- IL-1β (IL-1β; Dosage 1000 ng/ml, Table 19): 8 pg/mL
- IL-1β (IL-1β; Dosage 5000 ng/ml, Table 19): 13 pg/mL
- IL-1β (IL-1β; Dosage 10,000 ng/ml, Table 19): 13 pg/mL
